Consider five compounds from PubChem BioAssay AID1259407 (Chemical Carcinogenesis Research Information System (CCRIS), 2018).

The data set concerns CCRIS mutagenicity, Ames/micronucleus/aberration tests. Put plainly: CCRIS mutagenicity studies.
Where [1] appears, read: Test System: AMES SALMONELLA TYPHIMURIUM, Strain/Indicator: TA98, Metabolic Activation: NONE, Method: PREINCUBATION
[2] abbreviates: Test System: AMES SALMONELLA TYPHIMURIUM, Strain/Indicator: TA100, Metabolic Activation: NONE, Method: PREINCUBATION
Where [3] appears, read: Test System: AMES SALMONELLA TYPHIMURIUM, Strain/Indicator: TA1535, Metabolic Activation: NONE, Method: PREINCUBATION
Where [4] appears, read: Test System: AMES SALMONELLA TYPHIMURIUM, Strain/Indicator: TA1537, Metabolic Activation: NONE, Method: PREINCUBATION
Setting [5] is: Test System: AMES SALMONELLA TYPHIMURIUM, Strain/Indicator: TA100, Metabolic Activation: NONE, Method: STANDARD PLATE.
The mark [6] stands for this setting: Test System: AMES SALMONELLA TYPHIMURIUM, Strain/Indicator: TA104, Metabolic Activation: NONE, Method: PREINCUBATION

Active and inactive are the calls of the source. How the calls were made is not given here.

In the case of `CCCCCCCCCc1ccc(OP(=O)(Oc2ccccc2)Oc2ccccc2)cc1`, the mutagenic call was “inactive; negative” (Test System: AMES SALMONELLA TYPHIMURIUM, Strain/Indicator: TA97, Metabolic Activation: HAMSTER, LIVER, S-9, AROCLOR 1254 (5, 10 OR 30%), Method: PREINCUBATION); “inactive; negative” (Test System: AMES SALMONELLA TYPHIMURIUM, Strain/Indicator: TA97, Metabolic Activation: RAT, LIVER, S-9, AROCLOR 1254 (10%), Method: PREINCUBATION); “inactive; negative” (Test System: AMES SALMONELLA TYPHIMURIUM, Strain/Indicator: TA97, Metabolic Activation: RAT, LIVER, S-9, AROCLOR 1254 (30%), Method: PREINCUBATION); “inactive; negative” (Test System: AMES SALMONELLA TYPHIMURIUM, Strain/Indicator: TA98, Metabolic Activation: HAMSTER, LIVER, S-9, AROCLOR 1254 (10 OR 30%), Method: PREINCUBATION); “inactive; negative” under setting [1]; “inactive; negative” (Test System: AMES SALMONELLA TYPHIMURIUM, Strain/Indicator: TA98, Metabolic Activation: RAT, LIVER, S-9, AROCLOR 1254 (10 OR 30%), Method: PREINCUBATION). Also, the mutagenic call is, setting by setting: (Test System: AMES SALMONELLA TYPHIMURIUM, Strain/Indicator: TA100, Metabolic Activation: HAMSTER, LIVER, S-9, AROCLOR 1254 (10 OR 30%), Method: PREINCUBATION) “inactive; negative”; under setting [2], “inactive; negative”; (Test System: AMES SALMONELLA TYPHIMURIUM, Strain/Indicator: TA100, Metabolic Activation: RAT, LIVER, S-9, AROCLOR 1254 (10 OR 30%), Method: PREINCUBATION) “inactive; negative”; (Test System: AMES SALMONELLA TYPHIMURIUM, Strain/Indicator: TA1535, Metabolic Activation: HAMSTER, LIVER, S-9, AROCLOR 1254 (10 OR 30%), Method: PREINCUBATION) “inactive; negative”; under setting [3], “inactive; negative”; (Test System: AMES SALMONELLA TYPHIMURIUM, Strain/Indicator: TA1535, Metabolic Activation: RAT, LIVER, S-9, AROCLOR 1254 (10 OR 30%), Method: PREINCUBATION) “inactive; negative”. In addition, the mutagenic call is “inactive; negative” (Test System: AMES SALMONELLA TYPHIMURIUM, Strain/Indicator: TA1537, Metabolic Activation: HAMSTER, LIVER, S-9, AROCLOR 1254 (5, 10 OR 30%), Method: PREINCUBATION); “inactive; negative” under setting [4]; “inactive; negative” (Test System: AMES SALMONELLA TYPHIMURIUM, Strain/Indicator: TA1537, Metabolic Activation: RAT, LIVER, S-9, AROCLOR 1254 (5, 10 OR 30%), Method: PREINCUBATION).

For `CC(=O)Nc1ccnc2ccccc12`, the mutagenic call reads like this: under setting [1], “inactive; negative”; (Test System: AMES SALMONELLA TYPHIMURIUM, Strain/Indicator: TA98, Metabolic Activation: RAT, LIVER, S-9, KANECHLOR 500, Method: PREINCUBATION) “inactive; negative”; under setting [2], “inactive; negative”; (Test System: AMES SALMONELLA TYPHIMURIUM, Strain/Indicator: TA100, Metabolic Activation: RAT, LIVER, S-9, KANECHLOR 500, Method: PREINCUBATION) “inactive; negative”.

Take `CC(C)NCC(O)COc1cccc2c1OCC(O)C2` (stereo not drawn): the mutagenic call is, setting by setting: (Test System: AMES SALMONELLA TYPHIMURIUM, Strain/Indicator: TA98, Metabolic Activation: NONE, Method: STANDARD PLATE) “inactive; negative”; (Test System: AMES SALMONELLA TYPHIMURIUM, Strain/Indicator: TA98, Metabolic Activation: S-9, Method: STANDARD PLATE) “inactive; negative”; under setting [5], “inactive; negative”; (Test System: AMES SALMONELLA TYPHIMURIUM, Strain/Indicator: TA100, Metabolic Activation: S-9, Method: STANDARD PLATE) “inactive; negative”; (Test System: AMES SALMONELLA TYPHIMURIUM, Strain/Indicator: TA1535, Metabolic Activation: NONE, Method: STANDARD PLATE) “inactive; negative”; (Test System: AMES SALMONELLA TYPHIMURIUM, Strain/Indicator: TA1535, Metabolic Activation: S-9, Method: STANDARD PLATE) “inactive; negative”. For the same compound, the mutagenic call (Test System: AMES SALMONELLA TYPHIMURIUM, Strain/Indicator: TA1537, Metabolic Activation: NONE, Method: STANDARD PLATE) is “inactive; negative”; the mutagenic call (Test System: AMES SALMONELLA TYPHIMURIUM, Strain/Indicator: TA1537, Metabolic Activation: S-9, Method: STANDARD PLATE) was “inactive; negative”; the mutagenic call (Test System: AMES SALMONELLA TYPHIMURIUM, Strain/Indicator: TA1538, Metabolic Activation: NONE, Method: STANDARD PLATE) is “inactive; negative”; the mutagenic call (Test System: AMES SALMONELLA TYPHIMURIUM, Strain/Indicator: TA1538, Metabolic Activation: S-9, Method: STANDARD PLATE) was “inactive; negative”; the mutagenic call (Test System: E. COLI, Strain/Indicator: WP2 UVRA, Metabolic Activation: NONE, Method: STANDARD PLATE) was “inactive; negative”; the mutagenic call (Test System: E. COLI, Strain/Indicator: WP2 UVRA, Metabolic Activation: S-9, Method: STANDARD PLATE) is “inactive; negative”.

With `O[C@@H]1[C@H]2O[C@H]2c2c(ccc3ccccc23)[C@H]1O`, the mutagenic call is “active; positive” (Test System: AMES SALMONELLA TYPHIMURIUM, Strain/Indicator: TA97, Metabolic Activation: NONE, Method: PREINCUBATION); “active; positive” under setting [1]; “active; positive” under setting [2]; “active; positive” under setting [5]; “active; positive” under setting [6]; “active; positive” (Test System: CHINESE HAMSTER V-79, Strain/Indicator: V-79/6-THIOGUANINE, Metabolic Activation: NONE).

On to `O=C(Cl)c1ccc(Cl)cc1`, for which the mutagenic call runs as follows: under setting [1], “inactive; negative”; (Test System: AMES SALMONELLA TYPHIMURIUM, Strain/Indicator: TA98, Metabolic Activation: RAT LIVER S-9, PHENOBARBITAL AND BETA-NAPHTHOFLAVONE, Method: PREINCUBATION) “inactive; negative”; under setting [2], “inactive; negative”; (Test System: AMES SALMONELLA TYPHIMURIUM, Strain/Indicator: TA100, Metabolic Activation: RAT LIVER S-9, PHENOBARBITAL AND BETA-NAPHTHOFLAVONE, Method: PREINCUBATION) “inactive; negative”; (Test System: AMES SALMONELLA TYPHIMURIUM, Strain/Indicator: TA102, Metabolic Activation: NONE, Method: PREINCUBATION) “inactive; negative”; (Test System: AMES SALMONELLA TYPHIMURIUM, Strain/Indicator: TA102, Metabolic Activation: RAT LIVER S-9, PHENOBARBITAL AND BETA-NAPHTHOFLAVONE, Method: PREINCUBATION) “inactive; negative”. For the same compound, the mutagenic call is “inactive; negative” under setting [6]; “inactive; negative” (Test System: AMES SALMONELLA TYPHIMURIUM, Strain/Indicator: TA104, Metabolic Activation: RAT LIVER S-9, PHENOBARBITAL AND BETA-NAPHTHOFLAVONE, Method: PREINCUBATION); “inactive; negative” under setting [3]; “inactive; negative” (Test System: AMES SALMONELLA TYPHIMURIUM, Strain/Indicator: TA1535, Metabolic Activation: RAT LIVER S-9, PHENOBARBITAL AND BETA-NAPHTHOFLAVONE, Method: PREINCUBATION); “inactive; negative” under setting [4]; “inactive; negative” (Test System: AMES SALMONELLA TYPHIMURIUM, Strain/Indicator: TA1537, Metabolic Activation: RAT LIVER S-9, PHENOBARBITAL AND BETA-NAPHTHOFLAVONE, Method: PREINCUBATION). Further, the mutagenic call runs as follows: (Test System: E.COLI, Strain/Indicator: WP2UVRA/PKM101, Metabolic Activation: NONE, Method: PREINCUBATION) “inactive; negative”; (Test System: E.COLI, Strain/Indicator: WP2UVRA/PKM101, Metabolic Activation: RAT LIVER S-9, PHENOBARBITAL AND BETA-NAPHTHOFLAVONE, Method: PREINCUBATION) “inactive; negative”; (Test System: E.COLI, Strain/Indicator: WP2UVRA, Metabolic Activation: NONE, Method: PREINCUBATION) “inactive; negative”; (Test System: E.COLI, Strain/Indicator: WP2UVRA, Metabolic Activation: RAT LIVER S-9, PHENOBARBITAL AND BETA-NAPHTHOFLAVONE, Method: PREINCUBATION) “inactive; negative”.
